Patent US20110306597A1, “Nicotinamide Derivatives” (priority 2008, published 2011)

These compounds were tested against T1, human recombinant H-PGDS (Homo sapiens, UniProt O60760) (assay: Fluorescence Intensity h-PGDS TBA Enzyme Assay). Conditions: 1:175,000 human recombinant H-PGDS, highest inhibitor concentration typically 1 μM.
Format: biochemical
Outline: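 Readout is PGH2 depletion: after a 42 s reaction with 5.0 μM PGH2 and 2.5 mM glutathione (pH 8.0 Tris, 10 min inhibitor preincubation), Fe(II) converts leftover PGH2 to MDA, which forms a fluorescent TBA complex. IC50s come from 11-point, 3-fold duplicate curves, 4-parameter fit.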

T1 sequence (O60760 whole entry): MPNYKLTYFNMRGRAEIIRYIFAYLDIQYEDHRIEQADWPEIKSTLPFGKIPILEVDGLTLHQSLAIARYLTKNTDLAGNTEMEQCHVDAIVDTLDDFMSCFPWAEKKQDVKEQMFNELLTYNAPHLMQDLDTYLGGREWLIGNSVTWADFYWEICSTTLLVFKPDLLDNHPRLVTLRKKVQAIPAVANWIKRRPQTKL

Q: With `COc1cc(CNC(=O)c2cnc(-c3cccc(F)c3)c(Cl)c2)cc2c1OCCO2` [Example 548, 5-Chloro-6-(3-fluorophenyl)-N-[(8-methoxy-2,3-dihydro-1,4-benzodioxin-6-yl)methyl]nicotinamide] as the compound, how does the IC50 read?
A: The IC50 was 0.0547 µM.

Q: Which IC50 does the source give for `O=C(NCC(O)c1ccccc1F)c1cnc(-c2cccc(F)c2)c(Cl)c1` (centres unmarked) [Example 549, 5-Chloro-6-(3-fluorophenyl)-N-[2-(2-fluorophenyl)-2-hydroxyethyl]nicotinamide] here?
A: Its IC50 is 0.0379 µM.

Q: With `CCCOCCCNC(=O)c1cnc(-c2cccc(F)c2)c(Cl)c1` [Example 550, 5-Chloro-6-(3-fluorophenyl)-N-(3-propoxypropyl)nicotinamide] as the compound, how does the IC50 read?
A: Its IC50 is 0.0304 µM.

Q: `O=C(NCCCn1ncc2ccccc21)c1cnc(-c2cccc(F)c2)c(Cl)c1` [Example 551, 5-Chloro-6-(3-fluorophenyl)-N-[3-(1H-indazol-1-yl)propyl]nicotinamide] was tested. Which IC50 did it give?
A: The IC50 was 0.0847 µM.

Q: For `O=C(NCCN1CCOCC1)c1cnc(-c2cccc(F)c2)c(Cl)c1` [Example 552, 5-Chloro-6-(3-fluorophenyl)-N-(2-morpholin-4-ylethyl)nicotinamide], which IC50 is on record?
A: The IC50 was 0.0608 µM.

Q: `O=C(NCCC1CCCCO1)c1cnc(-c2cccc(F)c2)c(Cl)c1` (centres unmarked) [Example 553, 5-Chloro-6-(3-fluorophenyl)-N-[2-(tetrahydro-2H-pyran-2-yl)ethyl]nicotinamide] was tested. Which IC50 did it give?
A: Its IC50 is 0.0318 µM.

Q: Which IC50 does the source give for `CNS(=O)(=O)c1ccc(CNC(=O)c2cnc(-c3cccc(F)c3)c(Cl)c2)cc1` [Example 554, 5-Chloro-6-(3-fluorophenyl)-N-{4-[(methylamino)sulfonyl]benzyl}nicotinamide] here?
A: Its IC50 is 0.223 µM.

Q: For `COc1cc(F)cc(-c2ccc(C(=O)NCc3ccc(OC)c(OC)c3)cn2)c1` [Example 556, N-(3,4-Dimethoxybenzyl)-6-(3-fluoro-5-methoxyphenyl)nicotinamide], which IC50 is on record?
A: The IC50 was 0.09 µM.

Q: With `CCCOCCCNC(=O)c1ccc(-c2cc(F)cc(OC)c2)nc1` [Example 557, 6-(3-Fluoro-5-methoxypheny)-N-(3-propoxypropyl)nicotinamide] as the compound, how does the IC50 read?
A: The IC50 was 0.0896 µM.

Q: For `COc1cc(F)cc(-c2ccc(C(=O)NCC3CCN(C(C)=O)CC3)cn2)c1` [Example 558, N-[(1-Acetylpiperidin-4-yl)methyl]-6-(3-fluoro-5-methoxyphenyl)nicotinamide], which IC50 is on record?
A: The IC50 was 0.119 µM.

Q: How did the IC50 turn out when `CNS(=O)(=O)c1ccc(CNC(=O)c2ccc(-c3cc(F)cc(OC)c3)nc2)cc1` [Example 559, 6-(3-Fluoro-5-methoxyphenyl)-N-{4-[(methylamino)sulfonyl]benzyl}nicotinamide] was run?
A: The IC50 was 0.44 µM.

Q: Which IC50 does the source give for `COc1cc(F)cc(-c2ccc(C(=O)NCCC3CCCCO3)cn2)c1` (centres unmarked) [Example 560, 6-(3-Fluoro-5-methoxyphenyl)-N-[2-(tetrahydro-2H-pyran-2-yl)ethyl]nicotinamide] here?
A: Its IC50 is 0.129 µM.

Q: Which IC50 does the source give for `CN(C)CCOc1ccc(CNC(=O)c2cnc(-c3cccc(F)c3)c(Cl)c2)cc1` [Example 561, 5-Chloro-N-{4-[2-(dimethylamino)ethoxy]benzyl}-6-(3-fluorophenyl)nicotinamide] here?
A: Its IC50 is 0.0198 µM.

Q: For `Cc1ccc(C#N)c(N2C[C@H](NC(=O)c3ccc(-c4cccc(F)c4)nc3)[C@@H](O)C2)n1` [Example 562, N-[(3S,4S)-1-(3-Cyano-6-methylpyridin-2-yl)-4-hydroxypyrrolidin-3-yl]-6-(3-fluorophenyl)nicotinamide], which IC50 is on record?
A: Its IC50 is 0.00489 µM.

Q: `Cc1cc(C)c(C#N)c(N2C[C@H](NC(=O)c3ccc(-c4cccc(F)c4)nc3)[C@@H](O)C2)n1` [Example 563, N-[(3S,4S)-1-(3-Cyano-4,6-dimethylpyridin-2-yl)-4-hydroxypyrrolidin-3-yl]-6-(3-fluorophenyl)nicotinamide] was tested. Which IC50 did it give?
A: Its IC50 is 0.00515 µM.

Q: Which IC50 does the source give for `CCc1cn2nc(N3C[C@H](NC(=O)c4ccc(-c5cccc(F)c5)nc4)[C@@H](O)C3)ccc2n1` [Example 564, N-[(3S,4S)-1-(2-ethylimidazo[1,2-b]pyridazin-6-yl)-4-hydroxypyrrolidin-3-yl]-6-(3-fluorophenyl)nicotinamide] here?
A: Its IC50 is 0.0616 µM.

Q: `COc1ccc(CNC(=O)c2ccc(-c3cc(F)cc(F)c3)nc2)cc1OC` [Example 567, 6-(3,5-Difluorophenyl)-N-(3,4-dimethoxybenzyl)nicotinamide] was tested. Which IC50 did it give?
A: The IC50 was 0.0106 µM.

Q: `O=C(NCC1C(=O)Nc2ccccc21)c1ccc(-c2cc(F)cc(F)c2)nc1` (centres unmarked) [Example 568, 6-(3,5-Difluorophenyl)-N-[(2-oxo-2,3-dihydro-1H-indol-3-yl)methyl]nicotinamide] was tested. Which IC50 did it give?
A: Its IC50 is 0.00263 µM.

Q: For `CCCOCCCNC(=O)c1ccc(-c2cc(F)cc(F)c2)nc1` [Example 569, 6-(3,5-Difluorophenyl)-N-(3-propoxypropyl)nicotinamide], which IC50 is on record?
A: Its IC50 is 0.0251 µM.

Q: How did the IC50 turn out when `O=C(NCC1CCCN(c2ccccn2)C1)c1ccc(-c2cc(F)cc(F)c2)nc1` (centres unmarked) [Example 570, 6-(3,5-Difluorophenyl)-N-[(1-pyridin-2-ylpiperidin-3-yl)methyl]nicotinamide] was run?
A: The IC50 was 0.0325 µM.

Q: `CNS(=O)(=O)c1ccc(CNC(=O)c2ccc(-c3cc(F)cc(F)c3)nc2)cc1` [Example 571, 6-(3,5-Difluorophenyl)-N-{4-[(methylamino)sulfonyl]benzyl}nicotinamide] was tested. Which IC50 did it give?
A: The IC50 was 0.0621 µM.

Q: How did the IC50 turn out when `O=C(NC[C@@H]1COc2ccccc2C1)c1ccc(-c2cccc(F)c2)nc1` [Example 572] was run?
A: Its IC50 is 0.000886 µM.

Q: `O=C(NC[C@H]1COc2ccccc2C1)c1ccc(-c2cccc(F)c2)nc1` [Example 573] was tested. Which IC50 did it give?
A: The IC50 was 0.00324 µM.

Q: For `CNC(=O)N1[C@@H]2CC[C@H]1C[C@H](NC(=O)c1ccc(-c3cccc(F)c3)nc1)C2` [Example 594, (3-exo)-3-({[6-(3-Fluorophenyl)-pyridin-3-yl]carbonyl}amino)-N-methyl-8-azabicyclo[3.2.1]octane-8-carboxamide], which IC50 is on record?
A: The IC50 was 0.017 µM.

Q: With `CN(C)C(=O)N1[C@@H]2CC[C@H]1C[C@H](NC(=O)c1ccc(-c3cccc(F)c3)nc1)C2` [Example 595, (3-exo)-3-({[6-(3-Fluorophenyl)-pyridin-3-yl]carbonyl}amino)-N,N-dimethyl-8-azabicyclo[3.2.1]octane-8-carboxamide] as the compound, how does the IC50 read?
A: Its IC50 is 0.003 µM.

Q: `O=C(N[C@@H]1C[C@H]2CC[C@@H](C1)N2C(=O)N1CCC(O)CC1)c1ccc(-c2cccc(F)c2)nc1` [Example 596, 6-(3-Fluorophenyl)-N-(3-exo)-8-[(4-hydroxypiperidin-1-ylcarbonyl]-8-azabicyclo[3.2.1]octyl-3-yl}nicotinamide] was tested. Which IC50 did it give?
A: The IC50 was 0.011 µM.

Q: With `O=C(N[C@@H]1C[C@H]2CC[C@@H](C1)N2C(=O)NCCO)c1ccc(-c2cccc(F)c2)nc1` [Example 597, (3-exo)-3-({[6-(3-Fluorophenyl)-pyridin-3-yl]carbonyl}amino)-N-(2-hydroxyethyl)-8-azabicyclo[3.2.1]octane-8-carboxamide] as the compound, how does the IC50 read?
A: Its IC50 is 0.035 µM.

Q: Which IC50 does the source give for “N-(3-Fluorobenzyl)-6-(3- methylphenyl)nicotinamide [Example 238]” here?
A: The IC50 was 0.0389 µM.

Q: How did the IC50 turn out when “N-(4-Fluorophenyl)-6-(3- fluorophenyl)nicotinamide [Example 425]” was run?
A: The IC50 was 0.0526 µM.

Q: With “N-(4-Fluorophenyl)-6-(3- methoxyphenyl)nicotinamide [Example 307]” as the compound, how does the IC50 read?
A: Its IC50 is 0.187 µM.

Q: Which IC50 does the source give for “N-[2-(Benzyloxy)ethyl]-5-chloro-6-(3-fluorophenyl)nicotinamide [Example 555]” here?
A: The IC50 was 0.174 µM.

What follows are compounds tested against T1, human recombinant H-PGDS (assay: Slightly modified h-PGDS TBA enzyme assay (Examples 529, 565, 566, 574-588 and 591)). Conditions: slightly modified assay (Examples 529, 565, 566, 574-588 and 591); 1:40,000 human recombinant H-PGDS.
Format: biochemical
Description: Prostaglandin D Synthase (PGDS) converts the substrate prostaglandin H2 (PGH2) to prostaglandin D2. The depletion of PGH2 was measured via an Fe(II) reduction of the remaining PGH2 to malondialdehyde (MDA) and 12-HHT. The enzyme assay is based on the quantitative formation of a fluorescent complex from the non-fluorescent compounds MDA and 2-thiobarbituric acid (TBA), substantially as described in U.S. patent application publication US-2004/152148 by Lombardt.
Examples 529, 565, 566, 574-588 and 591 were tested in a slightly modified assay: The enzyme assay (30 μls during biological process) contained 100 mM Trizma pH 8.0, 100 μM MgCl2, 0.1 mg/ml IgG Rabbit serum, 5.0 μM PGH2 (Cayman; ethanol solution, #17020), 2.5 mM L-Glutathione (Sigma; reduced form #G4251), 1:40,000 human recombinant H-PGDS (from 1 mg/ml), 0.5% DMSO and inhibitor (varying concentration). 3 μls of diluted inhibitor (dissolved in DMSO) was plated into a 384-well assay plate followed by a 24 μl addition of an enzyme solution containing h-PGDS, Trizma, MgCl2, IgG and L-Glutathione. After pre-incubation of inhibitor and enzyme solution for 10 minutes at room temperature, the reaction was initiated with a 3 μl addition of substrate solution in 10 mM HCl. The reaction was terminated after 40 second by the addition of 3 μl stop buffer containing FeCl2 and citric acid. After addition of 45 μls of TBA plates were heated for one hour in a 70° C. oven. Plates were cooled at room temperature overnight and read on a plate reader the next day with excitation @ 530 nm and emission @ 560 nm. IC50's of inhibitors were calculated with a 4-parameter fit using 11 inhibitor concentrations in duplicate with ½ log serial dilutions. Controls on each plate included no inhibitor (zero % effect) and an inhibitor 500-fold in excess of its' IC50 (100% effect). The highest inhibitor concentration tested was typically 10 μM.

Q: With `O=C(N[C@H]1[C@@H]2CN(c3ncccn3)C[C@@H]21)c1ccc(-c2cccc(F)c2)nc1` [Example 529, 6-(3-Fluorophenyl)-N-[(1R,5S,6s)-3-pyrimidin-2-yl-3-azabicyclo[3.1.0]hex-6-yl]nicotinamide] as the compound, how does the IC50 read?
A: Its IC50 is 0.0113 µM.

Q: How did the IC50 turn out when `CC(=O)N1CCC(CNC(=O)c2ccc(-c3cc(F)ccc3O)nc2)CC1` [Example 565, N-[(1-Acetylpiperidin-4-yl)methyl]-6-(5-fluoro-2-hydroxyphenyl)nicotinamide] was run?
A: Its IC50 is 0.114 µM.

Q: How did the IC50 turn out when `CCOCCNC(=O)c1ccc(-c2cc(F)ccc2O)nc1` [Example 566, N-(2-Ethoxyethyl)-6-(5-fluoro-2-hydroxyphenyl)nicotinamide] was run?
A: The IC50 was 0.349 µM.

Q: With `O=C(NCCN1CCCC1)c1ccc(-c2cccc(F)c2)nc1` [Example 574, 6-(3-Fluorophenyl)-N-(2-pyrrolidin-1-ylethyl)nicotinamide] as the compound, how does the IC50 read?
A: Its IC50 is 1.2 µM.

Q: For `O=C(NCCN1CCC(O)CC1)c1ccc(-c2cccc(F)c2)nc1` [Example 575, 6-(3-Fluorophenyl)-N-[2-(4-hydroxypiperidin-1-yl)ethyl]nicotinamide], which IC50 is on record?
A: Its IC50 is 0.162 µM.

Q: For `CCCNC(=O)c1ccc(-c2cccc(F)c2)nc1` [Example 576, 6-(3-Fluorophenyl)-N-propylnicotinamide], which IC50 is on record?
A: Its IC50 is 0.0934 µM.

Q: How did the IC50 turn out when `O=C(NCCO)c1ccc(-c2cccc(F)c2)nc1` [Example 577, 6-(3-Fluorophenyl)-N-(2-hydroxyethyl)nicotinamide] was run?
A: The IC50 was 0.275 µM.
